Data from patent publication US20110229571A1, “Pharmaceutical Compositions Comprising a Selective I1 Imidazoline Receptor Agonist and an Angiotensin II Receptor Blocker” (Abbott Products GmbH, priority 2003, published 2011).

Tests used:
[1] = system: 2K1C (two-kidney one-clip) hypertensive rats; test: Blood pressure and heart rate (tail cuff) of two-kidney one-clip renal hypertensive rats after oral treatment; assay type: in vivo, rat; conditions: for diastolic blood pressure (DBP) / mean blood pressure (MBP) / systolic blood pressure (SBP) / heart rate: Mox 1 mg/kg, Epro 3 mg/kg or both; for diastolic blood pressure (DBP) / mean blood pressure (MBP) / systolic blood pressure (SBP): mean ± SE of 12 animals; for heart rate: n 12; for maximal decrease in the diastolic blood pressure / maximal decrease in the systolic blood pressure: maximal effect 2 hours after oral administration, moxonidine 1 mg/kg or eprosartan 3 mg/kg; for effect on blood pressure (in words): oral, moxonidine 1 mg/kg, eprosartan 3 mg/kg or both
Excerpt: The “two-kidney one-clip” technique results in renal ischemia and in the development of hypertension. In the rat, this technique produces chronic changes, similar to those in human beings with unilateral renal artery stenosis. 2K1C rats represent a pressure overload model of hypertension, characterized by the activation of the renin-angiotensin aldosterone system (RAAS) and peripheral vasoconstriction. This model is widely used as a high renin model of hypertension for the evaluation of angiotensin converting enzyme (ACE) inhibitors and angiotensin receptor antagonists (ARBs). Animals: Male Sprague-Dawley CFY rats were used. Animals were fed commercial laboratory rat food pellet and allowed to drink tap water ad libitum throughout the experiments. Two-kidney one-clip hypertension: Under ether anesthesia an incision was made on the right side of the dorsalvertebrocostal angle. After light exterioration of the right kidney a silver clip was placed on the renal artery, close to its origin from the aorta. The left kidney was not disturbed. Measurement of blood pressure and heart rate: Blood pressure and heart rate were measured by the tail cuff method (Model 229, IITC Inc., CA, USA) from the 1st week after clipping the renal artery, once a week for 6 weeks. At the time of blood pressure measurements the animals were minimally warmed to an ambient temperature of 29° C. using a thermostated warming chamber. Experimental protocol: Animals developing stable hypertension during the 6-week-study period were used for the drug treatments. 12 animals with established hypertension were used for each treatment group as follows: • Vehicle • Moxonidine 1 mg/kg • Eprosartan 3 mg/kg • Moxonidine 1 mg/kg+Eprosartan 3 mg/kg The animals were treated orally and the blood pressure was measured 30 min, 1 h, 2 h and 4 hours there after. Different treatments were applied randomly during the day. Statistical analysis: Parameters were expressed as mean±standard error of the mean (SE) and after analysis of variance were compared by means of the modified ‘t’-statistical method of Wallenstein et al. [Wallenstein S et al. (1980) Circ. Res. 47:1-9].

[2] = system: Zucker rats; test: Oral glucose tolerance test in Zucker rats after 3 weeks of treatment; assay type: in vivo, rat
Procedure: The effect of a combined administration of Moxonidine as an example for a selective Imidazoline I1 receptor agonist and Eprosartan as an example for an Angiotensin II At1 receptor antagonist was analyzed by measuring their influence on plasma glucose level in “Zucker rats”. The “Zucker rat” is a model of impaired glucose tolerance and is widely used to analyze compound effects on glucose tolerance. Animals: Male Zucker rats (HsdOla fa/fa) from Harlan were used in the experiments. The animals were fed commercial lab chow and had unlimited access to tap water throughout the experiment. Experimental protocol: Animals were treated for 3 weeks with either vehicle or the active compounds. Moxonidine was applied via the drinking water. Eprosartan was administered daily into the stomach via a cannula. Ten animals were used in each of the following treatment groups: • Vehicle • Moxonidine 1 mg/kg • Moxonidine 1 mg/kg+Eprosartan 3 mg/kg • Moxonidine 1 mg/kg+Eprosartan 30 mg/kg • Moxonidine 1 mg/kg+Eprosartan 100 mg/kg At the end of the drug treatment period the animals were subjected to an oral glucose tolerance test. Animals were given a solution containing 2 g glucose via a cannula into the stomach. Blood samples were drawn before and at 30, 60, 90, and 120 minutes after the glucose load by tail vein cannulation and analyzed for plasma glucose levels. Statistical analysis: Parameters were expressed as mean±standard error of the mean (SE) and after analysis of variance were compared by means of T-Test.

[3] = 30 min after oral administration

Structure (SMILES)	diastolic blood pressure (DBP) [1, 3] [mmHg]	mean blood pressure (MBP) [1, 3] [mmHg]	systolic blood pressure (SBP) [1, 3] [mmHg]	heart rate [1, 3] [beats/min]	diastolic blood pressure (DBP) ([1]; 1 h after oral administration) [mmHg]	mean blood pressure (MBP) ([1]; 1 h after oral administration) [mmHg]	systolic blood pressure (SBP) ([1]; 1 h after oral administration) [mmHg]	heart rate ([1]; 1 h after oral administration) [beats/min]	diastolic blood pressure (DBP) ([1]; 2 h after oral administration) [mmHg]	mean blood pressure (MBP) ([1]; 2 h after oral administration) [mmHg]	systolic blood pressure (SBP) ([1]; 2 h after oral administration) [mmHg]	heart rate ([1]; 2 h after oral administration) [beats/min]	diastolic blood pressure (DBP) ([1]; 4 h after oral administration) [mmHg]	mean blood pressure (MBP) ([1]; 4 h after oral administration) [mmHg]	systolic blood pressure (SBP) ([1]; 4 h after oral administration) [mmHg]	heart rate ([1]; 4 h after oral administration) [beats/min]	maximal decrease in the diastolic blood pressure [1] [%]	maximal decrease in the systolic blood pressure [1] [%]	effect on blood pressure (in words) [1]	other results
CCCCc1ncc(/C=C(\Cc2cccs2)C(=O)O)n1Cc1ccc(C(=O)O)cc1 [Eprosartan]	111 ± 2.8	117 ± 2.8	131 ± 2.8	370 ± 6.9	109 ± 2.3	116 ± 2.5	131 ± 3.1	375 ± 7.4	98 ± 4.8	105 ± 4.6	119 ± 4.5	378 ± 4.3	106 ± 6.6	112 ± 6.6	125 ± 6.1	376 ± 5.2	21	19	significantly decreased the blood pressure	
COc1nc(C)nc(Cl)c1NC1=NCCN1 [Moxonidine, 4-Chloro-5-[(4,5-dihydro-1H-imidazol-2-yl)-amino]-6-methoxy-2-methylpyrimidine]	118 ± 3.1	124 ± 3.2	136 ± 3.6	383 ± 5.3	110 ± 3.3	117 ± 2.6	130 ± 2.1	376 ± 6.7	100 ± 4.8	107 ± 4.2	122 ± 3.5	368 ± 5.9	109 ± 3.8	116 ± 3.5	129 ± 3.1	384 ± 6.0	19	16	significantly decreased the blood pressure	plasma glucose level ([2]; 0 min (before glucose challenge), 1 mg/kg Mox, mean ± SE of 10 animals): 97 ± 6 mg/dL; plasma glucose AUC (area under the curve) ([2]; 0-120 min after glucose challenge, 1 mg/kg Mox): 24960 ± 1268 mg·min/dL; plasma glucose level ([2]; 30 min after glucose challenge, 1 mg/kg Mox): 240 ± 15 mg/dL; plasma glucose level ([2]; 60 min after glucose challenge, 1 mg/kg Mox): 211 ± 15 mg/dL; plasma glucose level ([2]; 90 min after glucose challenge, 1 mg/kg Mox): 221 ± 11 mg/dL; plasma glucose level ([2]; 120 min after glucose challenge, 1 mg/kg Mox): 224 ± 14 mg/dL; effect on plasma glucose levels after oral glucose challenge (in words) ([2]; Moxonidine 1 mg/kg alone or with Eprosartan 3, 30, 100 mg/kg): significant reduction in plasma glucose levels at 60 and 90 minutes
